Patent US7332476B2, “Pyridyl substituted ketolide antibiotics” (Novartis AG, priority 2003, dated 2008)
Values after ≈ are worked out from the molar mass of the structure shown.

Columns and labels:
Assay in all cases: MIC, broth microdilution (NCCLS)
[1] = system: Enterococcus faecalis Enfa_29212; type: cell-based; settings: strain ID E, broth microdilution
Method in brief: (§1)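 Broth microdilution per NCCLS in cation-adjusted Mueller-Hinton broth, with 2-5% lysed horse blood added for S. pneumoniae. Inoculum 3×10^5–7×10^5 CFU/ml, 2-fold drug dilutions, 18-24 h at 35° C; S. pneumoniae under 5-10% CO2, others ambient air. MIC = lowest concentration preventing visible growth.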

[2] = system: Haemophilus influenzae Hain_49247; type: cell-based; settings: strain ID H; broth microdilution; unit assumed
[3] = system: Staphylococcus aureus Stau_29213; type: cell-based; settings: strain ID A; broth microdilution; in µg/mL (unit assumed)
Method in brief: as §1

[4] = system: Staphylococcus epidermidis Step_14990; type: cell-based; settings: strain ID C; broth microdilution; in µg/mL (unit assumed)
Method in brief: as §1

[5] = system: Staphylococcus epidermidis Step_f50654; type: cell-based; settings: strain ID D; broth microdilution; in µg/mL (unit assumed)
Method in brief: as §1

[6] = system: Streptococcus pneumoniae Stpn_Erm S 4297; type: cell-based; settings: strain ID Q, broth microdilution
Method in brief: as §1

[7] = system: Enterococcus faecalis Enfa_bc 11148-2; type: cell-based; settings: strain ID F; broth microdilution; in µg/mL (unit assumed)
Method in brief: (§2)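 Compounds dissolved in methanol, diluted in water, then 2-fold serially diluted in CAMHB (H. influenzae: Haemophilus Test Medium). Inoculated at 3×10^5–7×10^5 CFU/ml from 0.5 McFarland suspension, incubated 35° C for 18-24 h, and scored for visible growth.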

[8] = system: Haemophilus influenzae Hain_2762; type: cell-based; settings: strain ID L; broth microdilution; in µg/mL (unit assumed)
Method in brief: as §2

[9] = system: Haemophilus influenzae Hain_953460299-3; type: cell-based; settings: strain ID K; broth microdilution; in µg/mL (unit assumed)
Method in brief: as §2

[10] = system: Haemophilus influenzae Hain_960730503-3; type: cell-based; settings: strain ID I; broth microdilution; in µg/mL (unit assumed)
Method in brief: as §2

[11] = system: Haemophilus influenzae Hain_960820544-3; type: cell-based; settings: strain ID J; broth microdilution; in µg/mL (unit assumed)
Method in brief: as §2

[12] = system: Staphylococcus aureus Stau_33591; type: cell-based; settings: strain ID B; broth microdilution; unit assumed
Method in brief: as §2

[13] = system: Streptococcus pyogenes Stpy_8668; type: cell-based; parameters: MIC, strain ID G: unit not given beside the values; settings: strain ID G; broth microdilution
Method in brief: as §1

[14] = system: Streptococcus pneumoniae Stpn_49619; type: cell-based; parameters: MIC, strain ID M: unit not given beside the values; settings: strain ID M; broth microdilution
Method in brief: as §1

[15] = system: Streptococcus pneumoniae Stpn_297-749; type: cell-based; parameters: MIC, strain ID N: unit not given here; settings: strain ID N; broth microdilution
Method in brief: as §1

[16] = system: Streptococcus pneumoniae Stpn_280-962; type: cell-based; parameters: MIC, strain ID O: unit not given beside the values; settings: strain ID O; broth microdilution
Method in brief: as §1

[17] = system: S. pneumoniae Stpn_Erm 6849; type: cell-based, Streptococcus pneumoniae; settings: strain ID P; broth microdilution; in µg/mL (unit assumed)
Method in brief: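 Lowest drug concentration giving no visible growth after 18-24 hours at 35° C. under 5-10% CO2 was taken as MIC. Twofold serial dilutions in CAMHB plus 2-5% lysed horse blood, final inoculum 3×10^5–7×10^5 CFU/ml, per NCCLS microdilution.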

SMILES	MIC, strain ID E [1]	MIC, strain ID H [2]	MIC, strain ID A [3]	MIC, strain ID C [4]	MIC, strain ID D [5]	MIC, strain ID Q ([6]; in µg/mL (unit assumed))	MIC, strain ID F [7]	MIC, strain ID L [8]	MIC, strain ID K [9]	MIC, strain ID I [10]	MIC, strain ID J [11]	MIC, strain ID B [12]	MIC, strain ID G [13]	MIC, strain ID M [14]	MIC, strain ID N [15]	MIC, strain ID O [16]	MIC, strain ID P [17]	MIC, strain ID E ([1]; in µg/mL (unit assumed))	MIC, strain ID Q [6]
C#C[C@]12OC(=O)N(CCCCn3cnc(-c4ccc(Cl)nc4)c3)[C@@H]1[C@@H](C)C(=O)[C@H](C)C[C@](C)(OC)[C@H](OC1O[C@H](C)C[C@H](N(C)C)[C@H]1O)[C@@H](C)C(=O)[C@@H](C)C(=O)O[C@@H]2CC (stereo partly shown) [XXXIV]	=0.05	3.13 µg/mL (≈ 3.65 µM)	0.1	0.1	0.1	0.1	0.4	0.78	6.25	6.25	6.25	> 50 µg/mL	=0.05	=0.05	=0.05	=0.05	0.4		
C=C[C@]12OC(=O)N(CCCCn3cnc(-c4cnc(Cl)c(C)c4)c3)[C@@H]1[C@@H](C)C(=O)[C@H](C)C[C@](C)(OC)[C@H](OC1O[C@H](C)C[C@H](N(C)C)[C@H]1O)[C@@H](C)C(=O)[C@@H](C)C(=O)O[C@@H]2CC (stereo partly shown) [XXXVIII]		3.13 µg/mL (≈ 3.59 µM)	0.1	0.1	0.4	0.2	3.13	1.56	12.5	6.25	12.5	> 50 µg/mL	=0.05	=0.05	=0.05	=0.05	0.2	0.1	
C#C[C@]12OC(=O)N(CCCCn3cnc(-c4ccc(OC)nc4)c3)[C@@H]1[C@@H](C)C(=O)[C@H](C)C[C@](C)(OC)[C@H](OC1O[C@H](C)C[C@H](N(C)C)[C@H]1O)[C@@H](C)C(=O)[C@@H](C)C(=O)O[C@@H]2CC (stereo partly shown) [XXXII]		6.25 µg/mL (≈ 7.34 µM)	0.2	0.1	0.2	0.2	1.56	1.56	12.5	12.5	12.5	> 50 µg/mL	=0.05	=0.05	=0.05	=0.05	0.78	0.1	
C=C[C@]12OC(=O)N(CCCCn3cc(-c4ccc(Cl)nc4)nc3C)[C@@H]1[C@@H](C)C(=O)[C@H](C)C[C@](C)(OC)[C@H](OC1O[C@H](C)C[C@H](N(C)C)[C@H]1O)[C@@H](C)C(=O)[C@@H](C)C(=O)O[C@@H]2CC (stereo partly shown) [XXIX]		6.25 µg/mL (≈ 7.16 µM)	0.2	0.1	0.2		3.13	1.56	12.5	6.25	6.25	> 50 µg/mL	=0.05	=0.05	=0.05	=0.05	0.78	0.1	=0.05
C=C[C@]12OC(=O)N(CCCCn3cnc(-c4ccc(Cl)nc4)c3C)[C@@H]1[C@@H](C)C(=O)[C@H](C)C[C@](C)(OC)[C@H](OC1O[C@H](C)C[C@H](N(C)C)[C@H]1O)[C@@H](C)C(=O)[C@@H](C)C(=O)O[C@@H]2CC (stereo partly shown) [XXXVII]		6.25 µg/mL (≈ 7.16 µM)	0.2	0.2	0.2	0.2	0.78	1.56	6.25	12.5	6.25	> 50 µg/mL	=0.05	=0.05	=0.05	=0.05	0.78	0.1	
